The test system of assay [1] is male rats. In words: Stimulation of sexual behaviour in male rats (pre-copulatory and copulatory counts over 30 minutes). The class given is in vivo, Sprague Dawley rats. To be noted: 10 mg/kg oral.
Experimental: The extracts of the current invention were then evaluated for their efficacy in vivo to stimulate sexual behavior in male rats. Briefly, healthy Sprague Dawley rats were acclimatized and randomized into various treatment groups (G1 to G6) as summarized in table 5. These animals were introduced to mating with female counterparts, which were previously treated with 100 μg/rat of estradiol benzoate and 1 mg/rat of progesterone at approximately 48 hours and 4 hours respectively prior to mating. […] The scored test parameters include frequency of licking, anogenital sniffing, climbing, genital grooming, mounting and intromission.
Separately, a set of 42 healthy female rats were selected and each of them were treated with single dose of 100 μg of estradiol benzoate and 1 mg of progesterone at approximately 48 hours and 4 hours respectively prior to introduction to mating.
One hour after test substance administration, each male rat was allowed to mate with a female rat in oestrus phase. Male sexual behaviour was measured for a period of 30 minutes with the aid of video recording. The scored test parameters include frequency of licking, anogenital sniffing, climbing, genital grooming, mounting, intromission and the results are summarized in tables 6 and 7, and depicted in FIG. 1.
The subject of assay [2] is cyclic GMP. In words: Plasma cyclic GMP estimation by ELISA after mating period. The assay is classed as in vivo, Sprague Dawley rats. The following applies: 10 mg/kg oral, plasma after 30 minutes mating period. The protocol:
After 30 minutes of mating period, blood sample were collected from all animals, plasma separated and subjected to cyclic-GMP estimation using cyclic GMP ELISA Kit supplied by Cayman (Cat No 581022) as per the procedure provided by the manufacturer. The plasma cyclic GMP modulation data is summarized in Table 8 and depicted in FIG. 2.
After 30 minutes of mating period, blood sample was collected from each animal, plasma separated and the cyclic-GMP content was estimated using cyclic GMP ELISA Kit supplied by Cayman (Cat No 581022) as per the procedure provided by the manufacturer.

Structures can show the parent of a compound that is named as a salt.

Turning to `CCCc1nn(C)c2c(=O)[nH]c(-c3cc(S(=O)(=O)N4CCN(C)CC4)ccc3OCC)nc12` [Sildenafil citrate], in assay [1], the “Climbing count Mean ± SE” value came out at 13.50 ± 2.96, the “Genital grooming count Mean ± SE” value is reported as 15.33 ± 9.20, the “Intromission frequency Mean ± SE” value is listed as 3.67 ± 2.55 and the “Mounting count Mean ± SE” value turned out to be 5.50 ± 2.43. The “Sniffing count Mean ± SE” value in assay [1] is 25.83 ± 8.55. In assay [1] (1 hr before mating, 30 minutes), the “Licking count Mean ± SE” value was determined as 14.83 ± 11.32. The “Cyclic GMP levels (plasma)” value in assay [2] is reported as 18.79 ± 1.65 pmol/mL. The “Cyclic GMP levels (plasma)” value in assay [2] (listed as sildenafil citrate) is 18.79 pmol/mL.

The values above are taken from US11986506B2, “Dietary supplements for inhibiting PDE5 and increasing cGMP levels” (LAILA NUTRACEUTICALS, priority 2017, dated 2024).
